Assay results as given in patent US20250195490A1, “ALPHA-METHYLENE AND AMINOMETHYL LACTONES AND LACTAMS FOR TREATMENT OF CLOSTRIDIOIDES DIFFICILE INFECTION (CDI)” (Purdue Research Foundation, priority 2022, published 2025).
Values after ≈ are worked out from the molar mass of the structure shown. Like-named read-outs stand apart in the source and are kept apart here.

How the values were obtained:
[1] = system: Ba. dorsei; experiment: MIC against human normal gut microbiota: Bacteroides dorsei; type: cell-based
Text: (§1) The activity of the selected lactones against the human gut microbiota was also examined. Microbiota interfere with C. difficile's ability to colonize the gastrointestinal tract and subsequently cause infection. Many antibiotics inhibit/kill the endogenous microflora, which permits enhanced colonization by C. difficile and infection. Three different bacterial species that are present in the gut microflora were used in this experiment; Bifidobacterium (anaerobic Gram-positive bacteria), Bacteroides (anaerobic Gram-negative bacteria) and Lactobacillus (microaerophilic Gram-positive bacteria). Ideal compounds/drugs are those with selective antibacterial activity against C. difficile so as to protect the indigenous microflora present in the GI tract from being damaged/killed (which will exacerbate infections caused by C. difficile).
(§2) Bifidobacterium and Bacteroides were first grown for 48 hours at 37° C., anaerobically, using brain heart infusion supplemented (BHIS) agar (brain heart infusion agar supplemented with hemin, vitamin K and L-cysteine). Lactobacillus was cultivated on MRS agar and incubated in the presence of 5% CO2 for 48 hours at 37° C. Each bacterium was suspended in phosphate-buffered saline (PBS) to achieve 0.5 McFarland standard and subsequently diluted in brain heart infusion supplemented broth (for Bifidobacterium and Bacteroides) or in MRS broth (for Lactobacillus) to achieve a bacterial inoculum of approximately 5×10^5 CFU/mL. Bacteria were then seeded in 96-well plates containing serial dilutions of the compounds and incubated for 48 hours. MICs reported in Table 4 are the minimum concentration of compound/control drug that inhibited the visual growth of bacteria.

[2] = system: Clostridioides difficile; details: cited from earlier work
[3] = system: clinically important Clostridioides difficile strains; experiment: MIC against clinically important Clostridioides difficile strains; type: cell-based; details: Clostridioides difficile, read-out: MIC
Experimental: (§3) The antibacterial activity of compounds 48, 50, 51, 61 and 85 against a panel of Clostridioides difficile strains was evaluated. A bacterial solution equivalent to 0.5 McFarland standard was prepared and diluted in brain heart infusion broth supplemented with hemin and vitamin K. Compounds and control drugs were added in the first row of 96-well plates and serially diluted with media containing bacteria (to achieve a concentration gradient ranging from 128 to 1 μg/mL). Plates were then incubated anaerobically at […] for 48 hours.

[4] = system: L. gasseri; experiment: MIC against human normal gut microbiota: L. gasseri; type: cell-based, Lactobacillus gasseri; details: Lactobacillus gasseri; L. gasseri HM 407; read-out: MIC
Text: as §1, §2

[5] = system: L. casei; experiment: MIC against human normal gut microbiota: L. casei; type: cell-based, Lactobacillus casei; details: Lacticaseibacillus casei; L. casei HM 334; read-out: MIC
Text: as §1, §2

[6] = system: hypervirulent Clostridioides difficile strains; experiment: MIC against hypervirulent Clostridioides difficile strains; type: cell-based
Experimental: as §3

[7] = system: L. crispatus; experiment: MIC against human normal gut microbiota: L. crispatus; type: cell-based, Lactobacillus crispatus; details: Lactobacillus crispatus, read-out: MIC
Text: as §1, §2

[8] = system: L. reuteri; experiment: MIC against human normal gut microbiota: L. reuteri; type: cell-based, Lactobacillus reuteri; details: Limosilactobacillus reuteri; L. reuteri HM 120; read-out: MIC
Text: as §1, §2

[9] = system: Ba. fragilis; experiment: MIC against human normal gut microbiota: Bacteroides fragilis; type: cell-based
Text: as §1, §2

[10] = system: Bi. breve; experiment: MIC against human normal gut microbiota: Bifidobacterium breve; type: cell-based; details: Bifidobacterium breve; Bi. breve HM 856; read-out: MIC
Text: as §1, §2

[11] = system: Bi. longum; experiment: MIC against human normal gut microbiota: Bifidobacterium longum; type: cell-based; details: Bifidobacterium longum; Bi. longum HM 848; read-out: MIC
Text: as §1, §2

[12] = system: normal gut microflora; experiment: Activity against normal human gut microflora (panel statement); type: cell-based
Text: as §1
Bifidobacterium and Bacteroides were first grown for 48 hours at 37° C., anaerobically, using brain heart infusion supplemented (BHIS) agar (brain heart infusion agar supplemented with hemin, vitamin K and L-cysteine). Lactobacillus was cultivated on MRS agar and incubated in the presence of 5% CO2 for 48 hours at 37° C. […]

[13] = system: Clostridioides difficile; experiment: MIC by broth microdilution against Clostridioides difficile (Table 1); type: cell-based; details: Clostridioides difficile, BAA1870; anaerobic, 48 hours; strain BAA-1870; read-out: MIC Clostridioides difficile
Experimental: Method: The minimum inhibitory concentration (MIC) of the compounds and control drugs, linezolid (antibiotic), vancomycin (antibiotic), 5-fluorocytosine (5-FC, antifungal drug), and fluconazole (antifungal drug) was determined using the broth microdilution method according to the guidelines outlined by the Clinical and Laboratory Standards Institute (CLSI) against clinically relevant bacterial (methicillin-resistant Staphylococcus aureus (MRSA), vancomycin-resistant Enterococcus faecalis (VRE), vancomycin-resistant Enterococcus faecium (VRE), Clostridioides difficile and Escherichia coli) and fungal (Candida albicans) strains. A solution equivalent to 0.5 McFarland standard was prepared from each strain and diluted in cation-adjusted Mueller-Hinton broth (for S. aureus and E. coli), tryptone soy broth (for E. faecalis), or brain heart infusion broth (for E. faecium) to achieve a bacterial inoculum of about 5×10^5 CFU/mL. C. difficile strains were cultured in brain heart infusion broth supplemented with hemin and vitamin K. C. albicans was diluted in RPMI medium supplemented with 3-(N-morpholino) propanesulfonic acid to achieve a fungal concentration of about 1.5×10^3 CFU/mL. Compounds and control drugs were added in the first row of the 96-well plates and diluted with media containing bacteria (to achieve a concentration gradient ranging from 128 to 1 μg/mL). For MRSA, VRE, and E. coli strains, plates were then incubated aerobically at 37° C. for at least 18 hours. C. albicans was incubated aerobically at 37° C. for 24 hours. Plates containing C. difficile were incubated anaerobically at […] for 48 hours.

[14] = Bacteroides, Ba. dorsei HM 29, read-out: MIC
[15] = Clostridioides difficile, CD strain 81
[16] = Clostridioides difficile, CD strain 82
[17] = Clostridioides difficile, CD strain 83
[18] = Clostridioides difficile, CD strain 85
[19] = Clostridioides difficile, CD strain 86
[20] = Clostridioides difficile, CD strain 87
[21] = Clostridioides difficile, CD strain 90
[22] = Clostridioides difficile, CD strain 49279
[23] = Clostridioides difficile, CD strain 49287
[24] = Clostridioides difficile, CD strain 49291
[25] = Bacteroides fragilis, Ba. fragilis HM 709, read-out: MIC

CCc1c(Cl)c(O)c(Cl)c(O)c1C(=O)O[C@H]1[C@H](O)[C@H](OC)[C@H](OC/C2=C\C=C\C[C@H](O)/C(C)=C/[C@H](CC)[C@@H](O[C@@H]3OC(C)(C)[C@@H](OC(=O)C(C)C)[C@H](O)[C@@H]3O)/C(C)=C/C(C)=C/C[C@@H]([C@@H](C)O)OC2=O)O[C@@H]1C [Fidaxomicin, fidaxomicin, reference compound]
MIC ([1]; Ba. dorsei HM 717): >128 mg/L | MIC [1, 14]: > 128 mg/L | recurrence rate ([2]; infections involving the hypervirulent strains): 24% | recurrence rate ([2]; patients treated for an episode of recurrent C. difficile-associated diarrhea): 20% | MIC ([3]; CD strain 16): 0.015 mg/L (≈ 0.0142 µM) | MIC ([3]; CD strain 18): ≤ 0.007 mg/L | MIC ([3]; CD strain 19): 0.015 mg/L (≈ 0.0142 µM) | MIC ([3]; CD strain 1801): 0.015 mg/L (≈ 0.0142 µM) | MIC ([3]; CD strain 43255): 0.03 mg/L (≈ 0.0284 µM) | MIC ([3]; CD strain P6): ≤ 0.007 mg/L | MIC ([3]; CD strain P7): ≤ 0.007 mg/L | MIC ([3]; CD strain P13): ≤ 0.007 mg/L | MIC ([3]; CD strain P19): 0.03 mg/L (≈ 0.0284 µM) | MIC [4]: 1 mg/L (≈ 0.945 µM) | MIC [5]: 2 mg/L (≈ 1.89 µM) | MIC ([6]; CD strain 84): 0/03 | MIC [6, 15]: 0.03 mg/L (≈ 0.0284 µM) | MIC [6, 16]: 0.3 mg/L (≈ 0.284 µM) | MIC [6, 17]: 0.015 mg/L (≈ 0.0142 µM) | MIC [6, 18]: 0.03 mg/L (≈ 0.0284 µM) | MIC [6, 19]: 0.06 mg/L (≈ 0.0567 µM) | MIC [6, 20]: 0.015 mg/L (≈ 0.0142 µM) | MIC [6, 21]: ≤ 0.007 mg/L | MIC [6, 22]: ≤ 0.007 mg/L | MIC [6, 23]: ≤ 0.007 mg/L | MIC [6, 24]: ≤ 0.007 mg/L | MIC ([7]; L. crispatus HM 375): ≤ 1 mg/L | MIC ([7]; L. crispatus HM 421): 2 mg/L (≈ 1.89 µM) | MIC [8]: 128 mg/L (≈ 121 µM) | MIC ([9]; Ba. fragilis HM 710): >128 mg/L | MIC ([9]; Ba. fragilis HM 711): >128 mg/L | MIC ([9]; Ba. fragilis HM 714): >128 mg/L | MIC [9, 25]: > 128 mg/L | MIC [10]: > 128 mg/L | MIC [11]: 32 mg/L (≈ 30.2 µM)

Cc1ncc([N+](=O)[O-])n1CCO [Metronidazole, reference compound]
MIC ([1]; Ba. dorsei HM 717): ≤1 mg/L | MIC [1, 14]: ≤ 1 mg/L | MIC ([3]; CD strain 16): 0.25 mg/L (≈ 1.46 µM) | MIC ([3]; CD strain 18): ≤ 0.06 mg/L | MIC ([3]; CD strain 19): 0.125 mg/L (≈ 0.73 µM) | MIC ([3]; CD strain 1801): 0.125 mg/L (≈ 0.73 µM) | MIC ([3]; CD strain 43255): 0.125 mg/L (≈ 0.73 µM) | MIC ([3]; CD strain P6): ≤ 0.06 mg/L | MIC ([3]; CD strain P7): 0.25 mg/L (≈ 1.46 µM) | MIC ([3]; CD strain P13): ≤ 0.06 mg/L | MIC ([3]; CD strain P19): 0.25 mg/L (≈ 1.46 µM) | MIC [4]: > 128 mg/L | MIC [5]: > 128 mg/L | inhibition of bacteria of the normal gut microflora [12]: inhibited growth of species of Bacteroides and Bifidobacterium | MIC [13]: 0.25 mg/L (≈ 1.46 µM) | MIC [6, 15]: 0.125 mg/L (≈ 0.73 µM) | MIC [6, 16]: 0.25 mg/L (≈ 1.46 µM) | MIC [6, 17]: 0.25 mg/L (≈ 1.46 µM) | MIC ([6]; Clostridioides difficile, CD strain 84): 0.25 mg/L (≈ 1.46 µM) | MIC [6, 18]: 0.25 mg/L (≈ 1.46 µM) | MIC [6, 19]: 0.125 mg/L (≈ 0.73 µM) | MIC [6, 20]: 0.125 mg/L (≈ 0.73 µM) | MIC [6, 21]: 0.125 mg/L (≈ 0.73 µM) | MIC [6, 22]: 0.125 mg/L (≈ 0.73 µM) | MIC [6, 23]: ≤ 0.06 mg/L | MIC [6, 24]: 0.125 mg/L (≈ 0.73 µM) | MIC ([7]; L. crispatus HM 375): > 128 mg/L | MIC ([7]; L. crispatus HM 421): > 128 mg/L | MIC [8]: > 128 mg/L | MIC ([9]; Ba. fragilis HM 710): ≤1 mg/L | MIC ([9]; Ba. fragilis HM 711): ≤1 mg/L | MIC ([9]; Ba. fragilis HM 714): ≤1 mg/L | MIC [9, 25]: ≤ 1 mg/L | MIC [10]: ≤ 1 mg/L | MIC [11]: 64 mg/L (≈ 374 µM)
